Starred links: 1 amine or outer side, 2 acyl side, 3 side chain; linkers in the order of their positions; H or OH if unused. Non-standard residues stand in square brackets, D forms with d. Residues, ends and D or L forms follow the SMILES beside them. Groups on a side chain read outwards from the residue. *: point of attachment. C20 diacid = O=C(O)CCCCCCCCCCCCCCCCCCC(=O)*; C18 diacid = O=C(O)CCCCCCCCCCCCCCCCC(=O)*; γGlu = O=C(O)[C@H](CCC(=O)[*:2])N[*:1]; Aib = CC(C)(N)C(=O)O

The series is described as follows: PK measurements for half life assessment in pigs. It counts as in vivo, pig. As to conditions: male, large white, pig, plasma, sc, single subcutaneous injection, time from tmax to half of Cmax, typically mean of four animals. As to the method: Male large white pigs receive a single subcutaneous injection of the test compound at the start of study (0 hours). Repeated blood samples were taken from the pig over the proceeding 168 hours and plasma separated and stored at −20 to −80° C. Plasma concentration of the test compound was quantified using a radioimmunoassay or mass spectrum analysis. Time taken from tmax to half of Cmax was calculated and represents the half-life (t½) of the compound. Typically, the presented t½ is the mean of four separate animals.
The term half-life denotes how long it takes for the measured level to halve. High values mean slow decline, low ones rapid decline. As for `CC[C@H](C)[C@H](NC(=O)[C@H](Cc1ccccc1)NC(=O)[C@H](CCC(=O)O)NC(=O)[C@H](Cc1c[nH]cn1)NC(=O)[C@H](C)NC(=O)[C@H](CCCNC(=N)N)NC(=O)[C@H](CCCCN)NC(=O)[C@H](C)NC(=O)[C@H](CC(=O)O)NC(=O)[C@H](CC(C)C)NC(=O)[C@H](Cc1ccc(O)cc1)NC(=O)[C@H](CCCCN)NC(=O)[C@H](CO)NC(=O)[C@H](Cc1ccc(O)cc1)NC(=O)[C@H](CC(=O)O)NC(=O)[C@H](CO)NC(=O)[C@@H](NC(=O)[C@H](Cc1ccccc1)NC(=O)[C@@H](NC(=O)CNC(=O)[C@H](Cc1c[nH]cn1)NC(=O)C(C)(C)NC(=O)[C@@H](N)Cc1c[nH]cn1)[C@@H](C)O)[C@@H](C)O)C(=O)N[C@@H](CCC(=O)O)C(=O)N[C@@H](Cc1c[nH]c2ccccc12)C(=O)N[C@@H](CC(C)C)C(=O)N[C@@H](CC(C)C)C(=O)N[C@@H](CCC(N)=O)C(=O)N[C@@H](CO)C(=O)N[C@@H](Cc1c[nH]cn1)C(=O)N[C@@H](CCC(N)=O)C(=O)N[C@@H](CCC(N)=O)C(=O)N[C@@H](Cc1c[nH]cn1)C(=O)N[C@@H](CO)C(=O)N1CCC[C@H]1C(=O)N1CCC[C@H]1C(=O)N1CCC[C@H]1C(=O)N[C@@H](CCCCNC(=O)[C@H](CO)NC(=O)CNC(=O)CC[C@H](NC(=O)CCCCCCCCCCCCCCCCC(=O)O)C(=O)O)C(=O)O` [Example 507] (H-H[Aib]HGTFTSDYSKYLDAKRAHEFIEWLLQSHQQHSPPPK([Ser-Gly-γGlu-C18 diacid])-OH), the half-life is 112 h.

`CC[C@H](C)[C@H](NC(=O)[C@H](Cc1ccccc1)NC(=O)[C@H](CCC(=O)O)NC(=O)[C@H](CCC(N)=O)NC(=O)[C@H](C)NC(=O)[C@H](CCCNC(=N)N)NC(=O)[C@H](CCCCN)NC(=O)[C@H](C)NC(=O)[C@H](CC(=O)O)NC(=O)[C@H](CC(C)C)NC(=O)[C@H](Cc1ccc(O)cc1)NC(=O)[C@H](CCCCN)NC(=O)[C@H](CO)NC(=O)[C@H](Cc1ccc(O)cc1)NC(=O)[C@H](CC(=O)O)NC(=O)[C@H](CO)NC(=O)[C@@H](NC(=O)[C@H](Cc1ccccc1)NC(=O)[C@@H](NC(=O)CNC(=O)[C@H](Cc1c[nH]cn1)NC(=O)C(C)(C)NC(=O)[C@@H](N)Cc1c[nH]cn1)[C@@H](C)O)[C@@H](C)O)C(=O)N[C@@H](CCC(=O)O)C(=O)N[C@@H](Cc1c[nH]c2ccccc12)C(=O)N[C@@H](CC(C)C)C(=O)N[C@@H](CC(C)C)C(=O)N[C@@H](CCC(N)=O)C(=O)N[C@@H](CO)C(=O)N[C@@H](Cc1c[nH]cn1)C(=O)N[C@@H](CCC(N)=O)C(=O)N[C@@H](Cc1c[nH]cn1)C(=O)N1CCC[C@H]1C(=O)N[C@@H](CO)C(=O)N1CCC[C@H]1C(=O)N1CCC[C@H]1C(=O)N1CCC[C@H]1C(=O)N[C@@H](CCCCNC(=O)CC[C@H](NC(=O)CCCCCCCCCCCCCCCCCCC(=O)O)C(=O)O)C(=O)O` [Example 544] (H-H[Aib]HGTFTSDYSKYLDAKRAQEFIEWLLQSHQHPSPPPK([γGlu-C20 diacid])-OH): the half-life is 83 h.

On to `CC[C@H](C)[C@H](NC(=O)[C@H](Cc1ccccc1)NC(=O)[C@H](CCC(=O)O)NC(=O)[C@H](CCC(N)=O)NC(=O)[C@H](C)NC(=O)[C@H](CCCNC(=N)N)NC(=O)[C@H](CCCCN)NC(=O)[C@H](C)NC(=O)[C@H](CC(=O)O)NC(=O)[C@H](CC(C)C)NC(=O)[C@H](Cc1ccc(O)cc1)NC(=O)[C@H](CCCCN)NC(=O)[C@H](CO)NC(=O)[C@H](Cc1ccc(O)cc1)NC(=O)[C@H](CC(=O)O)NC(=O)[C@H](CO)NC(=O)[C@@H](NC(=O)[C@H](Cc1ccccc1)NC(=O)[C@@H](NC(=O)CNC(=O)[C@H](Cc1c[nH]cn1)NC(=O)C(C)(C)NC(=O)[C@@H](N)Cc1c[nH]cn1)[C@@H](C)O)[C@@H](C)O)C(=O)N[C@@H](CCC(=O)O)C(=O)N[C@@H](Cc1c[nH]c2ccccc12)C(=O)N[C@@H](CC(C)C)C(=O)N[C@@H](CC(C)C)C(=O)N[C@@H](CCC(N)=O)C(=O)N[C@@H](CO)C(=O)N[C@@H](Cc1c[nH]cn1)C(=O)N[C@@H](Cc1c[nH]cn1)C(=O)N[C@@H](CCC(N)=O)C(=O)N[C@@H](CCC(N)=O)C(=O)N[C@@H](Cc1c[nH]cn1)C(=O)N[C@@H](CCC(=O)O)C(=O)N[C@@H](CO)C(=O)N1CCC[C@H]1C(=O)N1CCC[C@H]1C(=O)N1CCC[C@H]1C(=O)N[C@@H](CCCCNC(=O)[C@H](CC(N)=O)NC(=O)CC[C@H](NC(=O)CCCCCCCCCCCCCCCCCCC(=O)O)C(=O)O)C(=O)O` [Example 549] (H-H[Aib]HGTFTSDYSKYLDAKRAQEFIEWLLQSHHQQHESPPPK([Asn-γGlu-C20 diacid])-OH), for which the half-life was 110 h.

For the molecule `CC[C@H](C)[C@H](NC(=O)[C@H](Cc1ccccc1)NC(=O)[C@H](CCC(=O)O)NC(=O)[C@H](Cc1c[nH]cn1)NC(=O)[C@H](C)NC(=O)[C@H](CCCNC(=N)N)NC(=O)[C@H](CCCCN)NC(=O)[C@H](C)NC(=O)[C@H](CC(=O)O)NC(=O)[C@H](CC(C)C)NC(=O)[C@H](Cc1ccc(O)cc1)NC(=O)[C@H](CCCCN)NC(=O)[C@H](CO)NC(=O)[C@H](Cc1ccc(O)cc1)NC(=O)[C@H](CC(=O)O)NC(=O)[C@H](CO)NC(=O)[C@@H](NC(=O)[C@H](Cc1ccccc1)NC(=O)[C@@H](NC(=O)CNC(=O)[C@H](Cc1c[nH]cn1)NC(=O)C(C)(C)NC(=O)[C@@H](N)Cc1c[nH]cn1)[C@@H](C)O)[C@@H](C)O)C(=O)N[C@@H](CCC(=O)O)C(=O)N[C@@H](Cc1c[nH]c2ccccc12)C(=O)N[C@@H](CC(C)C)C(=O)N[C@@H](CC(C)C)C(=O)N[C@@H](CCC(N)=O)C(=O)N[C@@H](CO)C(=O)N[C@@H](Cc1c[nH]cn1)C(=O)N[C@@H](CCC(N)=O)C(=O)N[C@@H](CCC(N)=O)C(=O)N[C@@H](Cc1c[nH]cn1)C(=O)N[C@@H](CCC(=O)O)C(=O)N[C@@H](CO)C(=O)N1CCC[C@H]1C(=O)N1CCC[C@H]1C(=O)N1CCC[C@H]1C(=O)N[C@@H](CCCCNC(=O)[C@H](CO)NC(=O)CNC(=O)CC[C@H](NC(=O)CCCCCCCCCCCCCCCCC(=O)O)C(=O)O)C(=O)O` [Example 587] (H-H[Aib]HGTFTSDYSKYLDAKRAHEFIEWLLQSHQQHESPPPK([Ser-Gly-γGlu-C18 diacid])-OH), the half-life was 84 h.

For `CC[C@H](C)[C@H](NC(=O)[C@H](Cc1ccccc1)NC(=O)[C@H](CCC(=O)O)NC(=O)[C@H](Cc1c[nH]cn1)NC(=O)[C@H](C)NC(=O)[C@H](CCCNC(=N)N)NC(=O)[C@H](CCCCN)NC(=O)[C@H](C)NC(=O)[C@H](CC(=O)O)NC(=O)[C@H](CC(C)C)NC(=O)[C@H](Cc1ccc(O)cc1)NC(=O)[C@H](CCCCN)NC(=O)[C@H](CO)NC(=O)[C@H](Cc1ccc(O)cc1)NC(=O)[C@H](CC(=O)O)NC(=O)[C@H](CO)NC(=O)[C@@H](NC(=O)[C@H](Cc1ccccc1)NC(=O)[C@@H](NC(=O)CNC(=O)[C@H](Cc1c[nH]cn1)NC(=O)C(C)(C)NC(=O)[C@@H](N)Cc1c[nH]cn1)[C@@H](C)O)[C@@H](C)O)C(=O)N[C@@H](CCC(=O)O)C(=O)N[C@@H](Cc1c[nH]c2ccccc12)C(=O)N[C@@H](CC(C)C)C(=O)N[C@@H](CC(C)C)C(=O)N[C@@H](CCC(N)=O)C(=O)N[C@@H](CO)C(=O)N[C@@H](Cc1c[nH]cn1)C(=O)N[C@@H](CCC(N)=O)C(=O)N[C@@H](CCC(N)=O)C(=O)N[C@@H](Cc1c[nH]cn1)C(=O)N[C@@H](CCC(=O)O)C(=O)N[C@@H](CO)C(=O)N1CCC[C@H]1C(=O)N1CCC[C@H]1C(=O)N1CCC[C@H]1C(=O)N[C@@H](CCCCNC(=O)CC[C@H](NC(=O)CCCCCCCCCCCCCCCCCCC(=O)O)C(=O)O)C(=O)O` [Example 588] (H-H[Aib]HGTFTSDYSKYLDAKRAHEFIEWLLQSHQQHESPPPK([γGlu-C20 diacid])-OH), the half-life is 65 h.

The molecule `CC[C@H](C)[C@H](NC(=O)[C@H](Cc1ccccc1)NC(=O)[C@H](CCC(=O)O)NC(=O)[C@H](CCC(N)=O)NC(=O)[C@H](C)NC(=O)[C@H](CCCNC(=N)N)NC(=O)[C@H](CCCCN)NC(=O)[C@H](C)NC(=O)[C@H](CC(=O)O)NC(=O)[C@H](CC(C)C)NC(=O)[C@H](Cc1ccc(O)cc1)NC(=O)[C@H](CCCCN)NC(=O)[C@H](CO)NC(=O)[C@H](Cc1ccc(O)cc1)NC(=O)[C@H](CC(=O)O)NC(=O)[C@H](CO)NC(=O)[C@@H](NC(=O)[C@H](Cc1ccccc1)NC(=O)[C@@H](NC(=O)CNC(=O)[C@H](Cc1c[nH]cn1)NC(=O)C(C)(C)NC(=O)[C@@H](N)Cc1c[nH]cn1)[C@@H](C)O)[C@@H](C)O)C(=O)N[C@@H](CCC(=O)O)C(=O)N[C@@H](Cc1c[nH]c2ccccc12)C(=O)N[C@@H](CC(C)C)C(=O)N[C@@H](CC(C)C)C(=O)N[C@@H](CCC(N)=O)C(=O)N[C@@H](CO)C(=O)N[C@@H](Cc1c[nH]cn1)C(=O)N[C@@H](Cc1c[nH]cn1)C(=O)N[C@@H](CCC(N)=O)C(=O)N[C@@H](CCC(N)=O)C(=O)N[C@@H](Cc1c[nH]cn1)C(=O)N[C@@H](CCC(=O)O)C(=O)N[C@@H](CO)C(=O)N1CCC[C@H]1C(=O)N1CCC[C@H]1C(=O)N1CCC[C@H]1C(=O)N[C@@H](CCCCNC(=O)[C@H](Cc1c[nH]cn1)NC(=O)[C@H](CC(N)=O)NC(=O)CC[C@H](NC(=O)CCCCCCCCCCCCCCCCC(=O)O)C(=O)O)C(=O)O` [Example 649] (H-H[Aib]HGTFTSDYSKYLDAKRAQEFIEWLLQSHHQQHESPPPK([His-Asn-γGlu-C18 diacid])-OH) showed a half-life of 84 h.

These data come from patent US12516095B2, “Peptide hormone analogues” (IP2IPO INNOVATIONS LIMITED, priority 2019, dated 2026).
